Assays:
[1] = test system: NCI-H446 xenograft tumors; test: In vivo xenograft tumor growth inhibition; set-up: species or system mice; settings: for anticancer activity in NCI-H446 xenograft tumor model: oral administration, 5-on-2-off regimen
Procedure: (§1) Male athymic nu/nu nude mice (BioLASCO, Taiwan) 6 weeks old were housed in sterile cages maintained under 12 h light/dark cycles with controlled temperature and humidity. Mice were inoculated subcutaneously with 1 × 10^6 NCI–H446 cells (ATCC@ HTB-171) resuspended in saline mixed with 50% Matrigel matrix (Corning, USA). The sizes of the xenografted tumors were measured by a digital caliper (GMC-190; Goldsun Electronics Co.) and calculated using the formula: tumor volume (mm^3) = length × (width)2/2. Body weight and tumor size were measured at least twice a week. When the xenograft tumor reached ≥200 mm^3 in size, mice were intravenous or orally administered with the vehicle (5% dimethylacetamide/95% PEG400) or the compounds on a 5-on-2-off dosing regimen for 2–4 weeks. Tumor growth was analyzed for a statistically significant difference using ANOVA, followed by the Student–Newman–Keuls test. P < 0.05 was considered a significant difference between groups.

[2] = Body weight of xenograft mice during treatment; format: in vivo; settings: PO 100 mg/kg, 4-week dosing period
Procedure: as §1

[3] = test system: pH3(Ser10) in NCI-H446 xenograft tumors; test: In vivo target validation: phosphorylation of histone H3 at Ser10 in tumors (western blot); set-up: species or system mice; settings: single oral dose 100 mg/kg, 2 h after drug administration
Procedure: (§2) Tumors were harvested after 2, 4, 8, and 24 h of the treatment, respectively (Figure 4A). Whole tumor tissues were collected for western blotting and immunohistochemistry (IHC) analyses. […] The western blot result of phosphorylated Aurora A/B/C was not provided due to the inability of detecting the signal in the tumor tissues.
The efficacy of a compound in reducing the MYC protein level and in inducing cell apoptosis was assessed using an NCI-H446 xenograft tumorigenicity mouse model. Six-week-old male athymic nu/nu nude mice (BioLASCO, Taiwan) were inoculated subcutaneously with 1 × 10^6 NCI-H446 cells resuspended in saline mixed with 50% Matrigel matrix (Corning, USA). […] Tumors were harvested after 2, 4, 8, and 24 h of drug treatment, respectively. Half of the tumor was cryopreserved and then subjected to western analysis; the other half was fixed in 10% formalin and then embedded in paraffin. For immunohistochemistry, tissue paraffin sections were deparaffinized using xylene and ethanol. After rehydration, antigen retrieval was achieved by placing the slides in 100 °C citrate buffer, pH 6.0 for 1 h. Endogenous peroxides were quenched by 0.5% H2O2 for 10 min. Slides were blocked with 3% BSA for 30 min and then incubated with a rabbit anticleaved Caspase-3 antibody (Cell signaling, 9661S) at room temperature for 1.5 h. […]

[4] = test system: cleaved PARP-1 (cPARP-1) in NCI-H446 xenograft tumors; test: In vivo target validation: cleaved PARP-1 in tumors (western blot); set-up: species or system mice; settings: single oral dose 100 mg/kg, after 24 h
Procedure: (§3) Apoptosis was assessed using levels of PARP-1, one of several known cellular substrates of caspases; cleavage of PARP-1 by caspases is considered a hallmark of apoptosis.[44]
(§4) The efficacy of a compound in reducing the MYC protein level and in inducing cell apoptosis was assessed using an NCI-H446 xenograft tumorigenicity mouse model. Six-week-old male athymic nu/nu nude mice (BioLASCO, Taiwan) were inoculated subcutaneously with 1 × 10^6 NCI-H446 cells resuspended in saline mixed with 50% Matrigel matrix (Corning, USA). […] Tumors were harvested after 2, 4, 8, and 24 h of drug treatment, respectively. Half of the tumor was cryopreserved and then subjected to western analysis; the other half was fixed in 10% formalin and then embedded in paraffin. For immunohistochemistry, tissue paraffin sections were deparaffinized using xylene and ethanol. After rehydration, antigen retrieval was achieved by placing the slides in 100 °C citrate buffer, pH 6.0 for 1 h. Endogenous peroxides were quenched by 0.5% H2O2 for 10 min. Slides were blocked with 3% BSA for 30 min and then incubated with a rabbit anticleaved Caspase-3 antibody (Cell signaling, 9661S) at room temperature for 1.5 h. After three washes with 1× PBS, a goat antirabbit HRP-polymer (Biocare Medical, USA) was added, followed by development of the color using 3,3′-diaminobenzidine substrate chromogen (Biocare Medical, USA). […]

[5] = test system: cMYC in NCI-H446 xenograft tumors; test: In vivo target validation: cMYC protein level in tumors (western blot); set-up: species or system mice; settings: single oral dose 100 mg/kg
Procedure: as §2
The efficacy of a compound in reducing the MYC protein level and in inducing cell apoptosis was assessed using an NCI-H446 xenograft tumorigenicity mouse model. Six-week-old male athymic nu/nu nude mice (BioLASCO, Taiwan) were inoculated subcutaneously with 1 × 10^6 NCI-H446 cells resuspended in saline mixed with 50% Matrigel matrix (Corning, USA). […] Tumors were harvested after 2, 4, 8, and 24 h of drug treatment, respectively. Half of the tumor was cryopreserved and then subjected to western analysis; the other half was fixed in 10% formalin and then embedded in paraffin. For immunohistochemistry, tissue paraffin sections were deparaffinized using xylene and ethanol. After rehydration, antigen retrieval was achieved by placing the slides in 100 °C citrate buffer, pH 6.0 for 1 h. Endogenous peroxides were quenched by 0.5% H2O2 for 10 min. Slides were blocked with 3% BSA for 30 min and then incubated with a rabbit anticleaved Caspase-3 antibody (Cell signaling, 9661S) at room temperature for 1.5 h. After three washes with 1× PBS, a goat antirabbit HRP-polymer (Biocare Medical, USA) was added, followed by development of the color using 3,3′-diaminobenzidine substrate chromogen (Biocare Medical, USA). The nucleus was stained with hematoxylin.

[6] = test system: cleaved Caspase-3 (CASP3) in NCI-H446 xenograft tumors; test: In vivo target validation: cleaved Caspase-3 immunohistochemistry; set-up: species or system mice; settings: single oral dose 100 mg/kg
Procedure: as §3, §4

[7] = PO, 5-on-2-off, after end of dosing

Row | Compound | anticancer activity in NCI-H446 xenograft tumor model [1] | body weight change [2] | reduction of phosphorylation level of histone H3 at Ser10 [3] [%] | cleaved PARP-1 (cPARP-1) levels in tumor tissues [4] | cMYC protein level relative to vehicle-treated tumors ([5]; 24 h after dosing) | relative cMYC protein level in tumors ([5]; 24 h post-treatment, vehicle 1.0 ± 0.230) | incidence of cleaved Caspase-3 (CASP3), IHC [6] | shrinkage of tumors with volume >750 mm^3 ([1]; PO 100 mg/kg, 5-on-2-off, 2 weeks) | tumor volume regression ([1]; PO 100 mg/kg, 5-on-2-off, four consecutive weeks) [%] | xenografted tumors remained stable after the last dosage [1, 7] [days] | effect on the cMYC level in tumors ([5]; 2–24 h) | tumors started to grow, day after the last dosage [1, 7] [days]
1 | CCOC(=O)n1nc(C)cc1Nc1cc(N2CCN(CC)CC2)nc(N[C@H]2CCN(C(=O)c3ccc(Cl)cc3F)C2)n1 [Compound 22, Ethyl (S)-5-((2-((1-(4-chloro-2-fluorobenzoyl)pyrrolidin-3-yl)amino)-6-(4-ethylpiperazin-1-yl)pyrimidin-4-yl)amino)-3-methyl-1H-pyrazole-1-carboxylate] | dose-dependent anticancer activity | – | – | – | – | – | – | – | – | – | – | –
2 | CCC(=O)n1nc(C)cc1Nc1cc(N2CCN(CC)CC2)nc(N[C@H]2CCN(C(=O)c3ccc(Cl)cc3F)C2)n1 [Compound 25, (S)-1-(5-((2-((1-(4-Chloro-2-fluorobenzoyl)pyrrolidin-3-yl)amino)-6-(4-ethylpiperazin-1-yl)pyrimidin-4-yl)amino)-3-methyl-1H-pyrazol-1-yl)propan-1-one] | dose-dependent anticancer activity | less than 5% | > 90 | significantly upregulated | around 37% | 0.374 ± 0.204 | greatly increased | great potency to shrink tumors | > 80 | 44 | – | –
3 | COc1cc(Nc2ncc3c(n2)-c2ccc(Cl)cc2C(c2c(F)cccc2OC)=NC3)ccc1C(=O)O [MLN8237, reference compound] | – | – | > 90 | significantly upregulated | – | – | – | – | – | – | marginal effect | 22

Reference: publication PMC8279414, “Discovery and Synthesis of a Pyrimidine-Based Aurora Kinase Inhibitor to Reduce Levels of MYC Oncoproteins” (Journal of Medicinal Chemistry, 2021)
